From ChEMBL document CHEMBL1133765, “QSAR model for drug human oral bioavailability” (J Med Chem, 2000)

Columns and labels:
physchem [1] = experiment: physchem
physchem [2] = details: octanol/water, pH 6.5
[3] = octanol/water
clinical = details: human, in vivo, po

SMILES	pKa (physchem [1])	logD (physchem [2])	delta logD [3]	bioavailability (clinical; F) [%]	bioavailability (clinical) [%]
CCCNC1CCc2nc(N)sc2C1 (stereo unspecified)	11	-2.9	-0.9	≥ 80	–
NC(=O)CCCCc1ccccc1	–	0.13	0	≥ 80	–
O=[N+]([O-])C1O[C@H]2[C@H](OC[C@@H]2O)[C@@H]1O (stereo partly specified)	–	-0.4	0	≥ 80	–
O=[N+]([O-])C1O[C@H]2[C@H](OC[C@H]2O)[C@H]1O (stereo partly specified)	–	-0.15	0	≥ 80	–
CCO [ALCOHOL]	–	–	–	> 80	–
Oc1ncnc2[nH]ncc12 [ALLOPURINOL]	–	-0.55	0	–	≥ 80
C=CCc1ccccc1OCC(O)CNC(C)C (stereo unspecified) [ALPRENOLOL]	–	0.4	-0.89	≤ 20	–
CCC1(CCC(C)C)C(=O)NC(=O)NC1=O [AMOBARBITAL]	–	2.05	0.13	–	≥ 80
CC(C)NCC(O)COc1ccc(COCCOC(C)C)cc1 (stereo unspecified) [BISOPROLOL]	9.2	-0.83	-0.89	–	–
CCCCNc1cc(C(=O)O)cc(S(N)(=O)=O)c1Oc1ccccc1 [BUMETANIDE]	–	-1.84	0.9	≥ 80	–
NC(=O)N1c2ccccc2C=Cc2ccccc21 [CARBAMAZEPINE]	–	–	0	≥ 80	–
CC(C)(C)NCC(O)COc1cccc2c1CCC(=O)N2 (stereo unspecified) [CARTEOLOL]	9.2	-1.35	-0.89	≥ 80	–
CN(C)CCC(c1ccc(Cl)cc1)c1ccccn1 (stereo unspecified) [CHLORPHENIRAMINE]	–	0.69	-0.89	–	–
CCCNC(=O)NS(=O)(=O)c1ccc(Cl)cc1 [CHLORPROPAMIDE]	5	0.76	0.89	≥ 80	–
CN1C(=O)CC(=O)N(c2ccccc2)c2cc(Cl)ccc21 [CLOBAZAM]	–	0.95	0	–	≥ 80
CN(C)CCCN1c2ccccc2CCc2ccc(Cl)cc21 [CLOMIPRAMINE]	–	2.49	–	–	–
O=c1ccc2ccccc2o1 [COUMARIN]	–	–	–	< 20	–
CC1=NS(=O)(=O)c2cc(Cl)ccc2N1 [DIAZOXIDE]	8.5	1.2	0.03	≥ 80	–
CC(C)N(CCC(C(N)=O)(c1ccccc1)c1ccccn1)C(C)C (stereo unspecified) [DISOPYRAMIDE]	10.4	-1.08	-0.9	–	≥ 80
N#Cc1ccccc1OCC(O)CNCCNC(=O)Cc1ccc(O)cc1 (stereo unspecified) [EPANOLOL]	7.8	-0.4	-0.77	≤ 20	–
CCc1cccc2c3c([nH]c12)C(CC)(CC(=O)O)OCC3 (stereo unspecified) [ETODOLAC]	4.7	–	–	≥ 80	–
O=C(NCC1CCCCN1)c1cc(OCC(F)(F)F)ccc1OCC(F)(F)F (stereo unspecified) [FLECAINIDE]	–	0.24	-0.9	≥ 80	–
CC(C(=O)O)c1ccc(-c2ccccc2)c(F)c1 (stereo unspecified) [FLURBIPROFEN]	4.2	1.81	0.9	–	≥ 80
Cc1ccc(C)c(OCCCC(C)(C)C(=O)O)c1 [GEMFIBROZIL]	4.8	1.47	0.89	≥ 80	–
COc1ccc(Cl)cc1C(=O)NCCc1ccc(S(=O)(=O)NC(=O)NC2CCCCC2)cc1 [GLYBURIDE]	5.3	1.85	0.87	≥ 80	–
CN1C(=O)NC(=O)C(C)(C2=CCCCC2)C1=O (stereo unspecified) [HEXOBARBITAL]	8.3	1.48	0.04	–	≥ 80
NNc1nncc2ccccc12 [HYDRALAZINE]	–	0.14	-0.61	≤ 20	–

SMILES	pKa (physchem [1])	logD (physchem [2])	delta logD [3]	bioavailability (clinical; F) [%]	bioavailability (clinical) [%]
Nc1cc(-c2ccncc2)c[nH]c1=O [INAMRINONE]	5.2	-0.72	-0.02	≥ 80	–
CNC1(c2ccccc2Cl)CCCCC1=O (stereo unspecified) [KETAMINE]	–	1.14	–	–	≤ 20
O=C(c1ccccc1)c1ccc2n1CCC2C(=O)O (stereo unspecified) [KETOROLAC]	–	-1.34	0.9	≥ 80	–
Cc1c(OCC(F)(F)F)ccnc1C[S+]([O-])c1nc2ccccc2[nH]1 (stereo unspecified) [LANSOPRAZOLE]	–	1.73	–	–	≥ 80
CN(CCCN1c2ccccc2CCc2ccccc21)CC(=O)c1ccc(Cl)cc1 [LOFEPRAMINE]	6.7	4.58	-0.32	≤ 20	–
O=C1Nc2ccc(Cl)cc2C(c2ccccc2Cl)=NC1O (stereo unspecified) [LORAZEPAM]	–	–	0	–	≥ 80
CC[C@H](C)C(=O)O[C@H]1C[C@@H](C)C=C2C=C[C@H](C)[C@H](CC[C@@H]3C[C@@H](O)CC(=O)O3)[C@H]21 [LOVASTATIN]	–	4.26	0	–	–
CC(C)(C)NCC(O)c1cc(Cl)c(N)c(C(F)(F)F)c1 (stereo unspecified) [MABUTEROL]	9.7	-0.03	-0.9	–	≥ 80
COC(=O)Nc1nc2ccc(C(=O)c3ccccc3)cc2[nH]1 [MEBENDAZOLE]	–	2.83	0	≤ 20	–
CCC1(c2cccc(O)c2)CCCCN(C)C1 (stereo unspecified) [MEPTAZINOL]	8.7	0.71	-0.88	–	≤ 20
Sc1ncnc2nc[nH]c12 [MERCAPTOPURINE ANHYDROUS]	7.6	-1.12	-0.72	≤ 20	–
Cc1ncc([N+](=O)[O-])n1CCO [METRONIDAZOLE]	–	–	0	≥ 80	–
Cc1[nH]c(=O)c(C#N)cc1-c1ccncc1 [MILRINONE]	5.2	0.68	-0.02	≥ 80	–
COc1ccc2cc(CCC(C)=O)ccc2c1 [NABUMETONE]	–	2.83	0	≤ 20	–
Cc1ccnc2c1NC(=O)c1cccnc1N2C1CC1 [NEVIRAPINE]	–	1.92	–	–	≥ 80
COC(=O)C1=C(C)NC(C)=C(C(=O)OC)C1c1ccccc1[N+](=O)[O-] [NIFEDIPINE]	–	–	–	–	79
O=C(O)CCc1nc(-c2ccccc2)c(-c2ccccc2)o1 [OXAPROZIN]	5.8	3.41	0.84	≥ 80	–
O=C1OC(c2ccc(O)cc2)(c2ccc(O)cc2)c2ccccc21 [PHENOLPHTHALEIN]	–	2.41	0	≤ 20	–
CC1CCCC(C)N1CCCC(O)(c1ccccc1)c1ccccn1 (stereo unspecified) [PIRMENOL]	10.2	-0.53	-0.9	≥ 80	–
Nc1ccc(S(=O)(=O)Nc2ncccn2)cc1 [SULFADIAZINE]	–	-0.39	0.65	≥ 80	–
Cc1cccc(C)c1NC(=O)C(C)N (stereo unspecified) [TOCAINIDE]	–	-0.56	-0.78	≥ 80	–
CCCCNC(=O)NS(=O)(=O)c1ccc(C)cc1 [TOLBUTAMIDE]	5.3	–	–	≥ 80	–
Cc1ccc(C(=O)c2ccc(CC(=O)O)n2C)cc1 [TOLMETIN]	–	-0.21	0.9	≥ 80	–
COc1cc(Cc2cnc(N)nc2N)cc(OC)c1OC [TRIMETHOPRIM]	–	–	–	> 80	–
CCCC(CCC)C(=O)O [VALPROIC ACID]	–	1.04	0.89	≥ 80	–
COc1ccc(C(CN(C)C)C2(O)CCCCC2)cc1 (stereo unspecified) [VENLAFAXINE]	–	-2.29	–	–	≤ 20
